# From ChEMBL document CHEMBL1127777, “Indolocarbazole nitrogens linked by three-atom bridges: a potent new class of PKC inhibitors” (Bioorg Med Chem Lett, 1994)
# Target: Protein kinase C (PKC)
# Experiment: In vitro inhibition of protein kinase C from rat brain.
row,IC50 [nM],Structure (SMILES)
1,90,O=C1NC(=O)c2c1c1c3ccccc3n3c1c1c2c2ccccc2n1CN(O)C3
2,10,O=C1NC(=O)c2c1c1c3ccccc3n3c1c1c2c2ccccc2n1CN(C(CO)CO)C3
3,17,O=C1NC(=O)c2c1c1c3ccccc3n3c1c1c2c2ccccc2n1CN(CCO)C3
4,86,CN1Cn2c3ccccc3c3c4c(c5c6ccccc6n(c5c32)C1)C(=O)NC4=O
5,11,O=C1NC(=O)c2c1c1c3ccccc3n3c1c1c2c2ccccc2n1COC3
6,15,O=C1NCc2c1c1c3ccccc3n3c1c1c2c2ccccc2n1CN(CCO)C3
7,5,O=C1NCc2c1c1c3ccccc3n3c1c1c2c2ccccc2n1CS(=O)(=O)C3
8,145,O=C1NC(=O)c2c1c1c3ccccc3n3c1c1c2c2ccccc2n1CNC3
9,7,O=C1NCc2c1c1c3ccccc3n3c1c1c2c2ccccc2n1CSC3

# The next lines start with the compound.
row,Structure (SMILES),IC50 [nM]
1,NC1=NC(=O)c2c1c1c3ccccc3n3c1c1c2c2ccccc2n1CSC3,24
2,O=C1NC(=O)c2c1c1c3ccccc3n3c1c1c2c2ccccc2n1CS(=O)(=O)C3,2
3,O=C1NC(=O)c2c1c1c3ccccc3n3c1c1c2c2ccccc2n1CSC3,14
4,CC1n2c3ccccc3c3c4c(c5c6ccccc6n(c5c32)C(C)S1(=O)=O)C(=O)NC4=O (stereo in doubt),2.4
5,O=C1NC(=O)c2c1c1c3ccccc3n3c1c1c2c2ccccc2n1C[S+]([O-])C3,19
6,CCOC(=O)C1n2c3ccccc3c3c4c(c5c6ccccc6n(c5c32)CS1(=O)=O)C(=O)NC4=O (stereo not drawn),20
7,O=C1NC(=O)c2c1c1c3ccccc3n3c1c1c2c2ccccc2n1C1COCC3S1(=O)=O,20
8,CC1n2c3ccccc3c3c4c(c5c6ccccc6n(c5c32)C(C)S1(=O)=O)C(=O)NC4=O (stereo in doubt; 16 (dl)),120
9,NC1=NC(=O)c2c1c1c3ccccc3n3c1c1c2c2ccccc2n1COC3,24
